The source of these data is US20040176274A1, “Analgesic methods using endothelin receptor ligands” (priority 2001, published 2004).

“And” between values parts separate entries of the source, which are not always exact repeats. Identical values can stand only once. Like-named read-outs stand apart in the source and are kept apart here. *1 amine or outer side, *2 acyl side, *3 side chain or, on linkers, in order; H or OH if unused. Where no end group is shown, it is not given here. Suc = O=C(CCC(=O)[*:2])[*:1] A value given as a limit tells only on which side of the number the result lay.

Data set [1] relates to ET-1-induced pain in the rat plantar hindpaw. Type of data set: in vivo. The source says: These examples are provided to illustrate the invention and should not be construed as limiting. ETA and ETB Receptors Mediate ET-1-induced Pain in the Rat Plantar Hindpaw An ET-1 animal model of acute pain was used to investigate the signaling pathways involved in endothelin receptor-mediated nociception. In this model system, acute pain was induced under sevoflurane anesthesia by subcutaneous ET-1 injection into the rat plantar hindpaw after 40 seconds of limb cooling. Injections were given either as a single 20 μl bolus for single compound or co-administration studies, or as two 10 μl injections separated by 1-2 minutes for pre-treatment studies, and were delivered into the mid plantar paw approximately 1 cm distal to the heel. Repetitive and spontaneous flinching of the ipsilateral hindpaw were counted in 5 minute blocks, beginning 5 minutes after ET-1 injection, for 75 minutes. […] Data was reported as the mean±s.e.m.

Another data set relates to sciatic nerve C-fibers. Briefly: Electrophysiological recording of spike activity in nociceptive C-fibers after plantar hindpaw injection. The data set is classed as in vivo, rat. The following applies: ET-1 2 nmoles, IRL-1620 2 nmoles; s.c. plantar hindpaw injection. From the text: FIG. 5 is a representative series of electrophysiological recordings of C-fiber activity following subcutaneous plantar hindpaw injections of (A) ET-1 alone, (B) ET-1 and IRL-1620, and (C) ET-1, IRL-1620, and naloxone. The arrow in (A) indicates the time of ET-1 injection. The first and second arrows in (B) indicate the time of IRL-1620 and IRL-1620/ET-1 injections, respectively. The first and second arrows in (C) indicate the time of IRL-1620/naloxone and ET-1/IRL-1620/naloxone injections, respectively.
In order to confirm that ETB receptor activation inhibits the ET-1-induced pain response and that the inhibition is mediated through an opioid-sensitive mechanism, the spike response of IRL-1620 alone, and in combination with naloxone, were studied in nociceptive C-fibers. Spike activity was recorded in sciatic nerve C-fibers from twelve animals following subcutaneous plantar hindpaw injections of ET-1. The mean and maximum response frequencies following injection of ET-1 alone (2 nmoles) are 0.32±0.07 imp/s and 4.17+0.17 imp/s, respectively.

Another data set deals with wild-type control mice. Briefly: ET-1 pain behavior (biting and licking) in wild-type control mice. Type of data set: in vivo. The following applies: ET-1 100 pmol s.c. mouse plantar hindpaw, 30 minutes. Here is the method:
(§1) The duration of biting and licking events was used as a measure of pain responsiveness following subcutaneous administration of ET-1(100 pmol) into the mouse plantar hindpaw. The duration of these events was assessed in five minute periods for 30 minutes after ET-1 injection.

Another data set has as its system GIRK2 knockout mice. Briefly: ET-1 pain behavior (biting and licking) in GIRK2 knockout mice. Type of data set: in vivo. Particulars: ET-1 100 pmol s.c. mouse plantar hindpaw, 30 minutes. Here is the method: as §1
The subject of data set [2] is cultured adult human primary keratinocytes. Briefly: β-endorphin release from cultured keratinocytes (radioimmunoassay). The data set is classed as cell-based. The method, then: Cultured adult human primary keratinocytes, obtained during facelift procedures, were used to confirm that keratinocytes are the source of the extracellular β-endorphin that mediates ETB receptor-induced analgesia. Cultured keratinocytes were transferred to PBS and incubated in the presence of either 10 or 200 nM IRL-1620 for thirty or sixty minutes. Subsequently, the β-endorphin concentration in the PBS was measured by radioimmunoassay. In the absence of IRL-1620, the basal level of β-endorphin was 1.76±0.08 μg/ml. […] The intracellular concentration of β-endorphin in similarly treated cultured keratinocytes was 108±48 pg β-endorphin per 10^5 cells.

The mark [3] stands for this setting: entire 75 minute observation period, dosages ET-1 2 nmol, BQ-788 60 nmol, IRL-1620 2 nmol, naloxone 55 nmol, tertiapin 20 pmol, mean ± s.e.m.
The mark [4] stands for this setting: s.c. rat plantar hindpaw, dosages ET-1 2 nmol, BQ-788 60 nmol, IRL-1620 2 nmol, naloxone 55 nmol, tertiapin 20 pmol, mean ± s.e.m.
The mark [5] stands for this setting: without ET-1, BQ-788 60 nmol bolus or 2 x 30 nmol, naloxone 55 nmol, tertiapin 20 pmol.
[6] abbreviates: 0.5 μg CL prior to ET-1 (2 nmol), 75 minute observation period, ET-1 line = control.
Setting [7] is: 0.5 μg CL s.c. two minutes prior to ET-1 (2 nmol), ET-1 line = control.
Where [8] appears, read: ET-1 4 nmol, s.c. rat plantar hindpaw.
Setting [9] is: ET-1 6 nmol, s.c. rat plantar hindpaw.
Where [10] appears, read: CTOP 18.8 nmoles co-injected with ET-1 and IRL-1620.
The mark [11] stands for this setting: 0.5 μg CL, or equal volume of water (ET-1 + IRL-1620 line), prior to co-administration of ET-1 (2 nmol) and IRL-1620 (2 nmol).
Where [12] appears, read: IRL-1620 4 nmol, alone or prior and co-administered with ET-1 2 nmol.

For `Oc1ccc2c3c1O[C@H]1c4[nH]c5ccccc5c4C[C@@]4(O)[C@@H](C2)N(CC2CC2)CC[C@]314` [naltrindole], the “effect on flinching behavior” value in data set [1] (naltrindole with ET-1 alone or the ET-1/IRL-1620 combination) is given as “did not affect flinching behavior”.
Turning to `Oc1ccc2c3c1O[C@H]1c4[nH]c5c(c4C[C@@]4(O)[C@@H](C2)N(CC2CC2)CC[C@]314)C[C@@]1(O)[C@H]2Cc3ccc(O)c4c3[C@@]1(CCN2CC1CC1)[C@H]5O4` [nor-BNI], the “effect on flinching caused by ET-1 administration alone” value in data set [1] (nor-BNI 3.4 mM) was “partially enhanced the flinching”.
Consider `CCCC[C@@H](NC(=O)[C@@H](Cc1cn(C(=O)OC)c2ccccc12)NC(=O)[C@H](CC(C)(C)C)NC(=O)N1[C@H](C)CCC[C@@H]1C)C(=O)O` (relative stereo) [BQ-788, N-cis-2,6-dimethylpiperidinocarbonyl-L-gamma-methylleucyl-D-1-methoxycarbonyltryptophanyl-D-Nle], for which, in data set [1] (setting [3]), the “Total Number of Flinches” value was 17.3 ± 2.3 flinches. Moreover, in data set [1] (setting [4]), the “MFF (maximal flinch frequency)” value is given as 5.8 ± 0.9 flinches per 5 minutes and the “Time to MFF” value is 32.5 ± 10.2 min. Further, in data set [1] (setting [5]), the “flinching behavior when administered alone compared to PBS control” value (“flinching behavior … compared to PBS control” below) is “did not result in altered flinching behaviors”.
Consider “Cys-Ser-Cys-Ser-Ser-Leu-Met-Asp-Lys-Glu-Cys-Val-Tyr-Phe-Cys-His-Leu-Asp-Ile-Ile-Trp [ET-1]”, for which the “maximum response frequency of C-fiber spike activity” value with sciatic nerve C-fibers is reported as 4.17 ± 0.17 imp/s. Also, in the data set with sciatic nerve C-fibers, the “mean response frequency of C-fiber spike activity” value amounted to 0.32±0.07 imp/s. The “total duration of biting and licking behavior” value in the data set on wild-type control mice was found to be 152 ± 18 s; with GIRK2 knockout mice it was 218 ± 18 s. Besides, the “Total Number of Flinches” value is 153±11 in data set [1] (setting [6]); 178.5±29.1 flinches in data set [1] (ET-1 4 nmol, entire 75 minute observation period); 253.3 ± 66.2 flinches in data set [1] (ET-1 6 nmol, entire 75 minute observation period). Also, the “MFF (maximal flinch frequency)” value was 27±2 flinches per five minutes in data set [1] (setting [7]); 40.2±3.9 flinches per 5 minutes in data set [1] (setting [8]); 41.9±8.7 flinches per 5 minutes in data set [1] (setting [9]); 23.8±1.9 flinches per 5 minutes and 24±2 flinches per 5 minutes in data set [1] (setting [4]). Moreover, in data set [1] (ET-1 4 nmol), the “flinching behavior returning to baseline” value was not above 75 min. In data set [1] (ET-1 4 nmol), the “start of flinching after injection” value was 10 to 20 min. Besides, the “animals with evoked ipsilateral hindpaw flinching” value in data set [1] (ET-1 4 nmol, n=12) was found to be 100%. For the same molecule, the “Time to MFF” value in data set [1] (setting [8]) came to 40.8 ± 2.8 min; in data set [1] (setting [9]), 22.5 ± 4.1 min.
CTOP: in data set [1] (setting [10]), the “MFF (maximal flinch frequency)” value is 31±4 flinches/5 minutes and the “effect on IRL-1620 analgesia” value is reported as “blocked the analgesic effects of IRL-1620”.
Consider `COc1ccc2c(c[n+](C)c3c4cc5c(cc4ccc23)OCO5)c1OC` [CL, Chelerythrine chloride], for which, in data set [1] (setting [6]), the “Total Number of Flinches” value was 253±7. The “MFF (maximal flinch frequency)” value in data set [1] (setting [7]) was found to be 46±3 flinches per five minutes; in data set [1] (setting [11]), 39±3 flinches per five minutes. For the same molecule, the total flinches in data set [1] (setting [11]) was 207±10. Further, in data set [1] (0.8 μg CL s.c. rat plantar hindpaw), the “toxicity” value was “showed signs of toxicity”.
With “Suc-Asp-Glu-Glu-Ala-Val-Tyr-Phe-Ala-His-Leu-Asp-Ile-Ile-Trp (Suc-DEEAVYFAHLDIIW) [IRL-1620, ETB receptor agonist]”, in data set [2] (10 nM IRL-1620, 60 minute incubation), the “change in extracellular β-endorphin” value is given as “did not result in a significant change”. Also, in data set [2] (200 nM IRL-1620 in PBS, basal level 1.76±0.08 μg/ml), the “extracellular β-endorphin concentration” value worked out at 10.5 ± 3 µg/mL. In data set [2] (200 nM IRL-1620 versus basal), the “increase in extracellular β-endorphin” value is 5 fold. Further, in data set [2] (similarly treated cultured keratinocytes), the “intracellular concentration of β-endorphin” value is recorded as 108±48 pg β-endorphin per 10^5 cells. Moreover, in data set [1] (IRL-1620 4 nmol alone), the “flinching behavior … compared to PBS control” value is recorded as “small but significant increase in flinching behavior”. Moreover, in data set [1] (setting [12]), the “MFF (maximal flinch frequency)” value is 4.7 ± 0.6 flinches per 5 minutes and the “Time to MFF” value was found to be 33.3 ± 6.1 min. Moreover, the “Total Number of Flinches” value in data set [1] (IRL-1620 4 nmol, alone or with ET-1 2 nmol, 75 minutes) came to 22.1 ± 3.1 flinches.
For `C=CCN1CC[C@]23c4c5ccc(O)c4O[C@H]2C(=O)CC[C@@]3(O)[C@H]1C5` [Naloxone, naloxone], in data set [1] (setting [3]), the “Total Number of Flinches” value was determined as 16.1 ± 4.1 flinches. Moreover, in data set [1] (setting [4]), the “MFF (maximal flinch frequency)” value is on record as 3.3 ± 0.8 flinches per 5 minutes and the “Time to MFF” value is 28.6 ± 5.6 min. Moreover, the “flinching behavior … compared to PBS control” value in data set [1] (setting [5]) is “did not induce flinching behavior that was different from PBS control”.
Consider “Ala-Leu-Cys-Asn-Cys-Asn-Arg-Ile-Ile-Ile-Pro-His-Met-Cys-Trp-Lys-Lys-Cys-Gly-Lys-Lys (ALCNCNRIIIPHMCWKKCGKK) [Tertiapin, GIRK channel antagonist]”, for which the “Total Number of Flinches” value in data set [1] (setting [3]) is 17 ± 6 flinches. Further, in data set [1] (setting [5]), the “flinching behavior … compared to PBS control” value is on record as “did not induce flinching behavior that was different from naloxone or PBS control”.
